According to patent US12503461B2, “Pesticidally active heterocyclic derivatives with sulfur and sulfoximine containing substituents” (SYNGENTA CROP PROTECTION AG, priority 2019, dated 2025):

Legend:
Assay type in all cases: in vivo
[1] = tested on: Spodoptera littoralis (Egyptian Cotton Leaf Worm); assay: Example B7: Spodoptera littoralis (Egyptian cotton leaf worm), sprayed cotton leaf discs, L1 larvae; conditions: foliar, 72 h, application rate of 200 ppm, 3 days after infestation, in comparison to untreated samples
Description: Example B7: Spodoptera littoralis (Egyptian Cotton Leaf Worm
Cotton leaf discs were placed onto agar in 24-well microtiter plates and sprayed with aqueous test solutions prepared from 10′000 ppm DMSO stock solutions. After drying the leaf discs were infested with five L1 larvae. The samples were assessed for mortality, anti-feeding effect, and growth inhibition in comparison to untreated samples 3 days after infestation. Control of Spodoptera littoralis by a test sample is given when at least one of the categories mortality, anti-feedant effect, and growth inhibition is higher than the untreated sample.

[2] = tested on: Diabrotica balteata (Corn Root Worm); assay: Example B1: Diabrotica balteata (corn root worm), sprayed maize sprouts on agar, L2 larvae; conditions: 96 h, application rate of 200 ppm, 4 days after infestation, in comparison to untreated samples, read-out: effect in at least one of the two categories (mortality or growth inhibition)
Description: Example B1: Diabrotica balteata (Corn Root Worm
Maize sprouts placed onto an agar layer in 24-well microtiter plates were treated with aqueous test solutions prepared from 10′000 ppm DMSO stock solutions by spraying. After drying, the plates were infested with L2 larvae (6 to 10 per well). The samples were assessed for mortality and growth inhibition in comparison to untreated samples 4 days after infestation.

[3] = tested on: Euschistus heros (Neotropical Brown Stink Bug); assay: Example B2: Euschistus heros (neotropical brown stink bug), sprayed soybean leaves, N2 nymphs; conditions: 120 h, application rate of 200 ppm, 5 days after infestation, in comparison to untreated samples, read-out: effect in at least one of the two categories (mortality or growth inhibition)
Description: Example B2: Euschistus heros (Neotropical Brown Stink Bug
Soybean leaves on agar in 24-well microtiter plates were sprayed with aqueous test solutions prepared from 10′000 ppm DMSO stock solutions. After drying the leaves were infested with N2 nymphs. The samples were assessed for mortality and growth inhibition in comparison to untreated samples 5 days after infestation.

[4] = tested on: Plutella xylostella (Diamond Back Moth); assay: Example B4: Plutella xylostella (diamond back moth), treated artificial diet, eggs; conditions: 192 h, application rate of 200 ppm, 8 days after infestation, in comparison to untreated samples, read-out: effect in at least one of the two categories (mortality or growth inhibition)
Description: Example B4: Plutella xylostella (Diamond Back Moth
24-well microtiter plates with artificial diet were treated with aqueous test solutions prepared from 10′000 ppm DMSO stock solutions by pipetting. After drying, Plutella eggs were pipetted through a plastic stencil onto a gel blotting paper and the plate was closed with it. The samples were assessed for mortality and growth inhibition in comparison to untreated samples 8 days after infestation.

CCN=S(=O)(c1ccc2oc(-c3ncc(C4(C#N)CC4)cc3S(=O)(=O)CC)nc2c1)C(F)(F)F (stereo not drawn) [P8, 1-[5-ethylsulfonyl-6-[5-[N-ethyl-S-(trifluoromethyl)sulfonimidoyl]-1,3-benzoxazol-2-yl]-3-pyridyl]cyclopropanecarbonitrile]
≥ 80%: percent control (mortality, anti-feeding effect or growth inhibition) at 200 ppm [1] | percent effect (mortality or growth inhibition) at 200 ppm [2] | effect (mortality or growth inhibition) at 200 ppm [3] | percent effect (mortality or growth inhibition) at 200 ppm [4]

CCN=S(=O)(c1ccc2oc(-c3ncc(Oc4ccccn4)cc3S(=O)(=O)CC)nc2c1)C(F)(F)F (stereo not drawn) [P10, ethylimino-[2-[3-ethylsulfonyl-5-(2-pyridyloxy)-2-pyridyl]-1,3-benzoxazol-5-yl]-oxo-(trifluoromethyl)-λ^6-sulfane]
≥ 80%: percent control (mortality, anti-feeding effect or growth inhibition) at 200 ppm [1] | percent effect (mortality or growth inhibition) at 200 ppm [2] | effect (mortality or growth inhibition) at 200 ppm [3] | percent effect (mortality or growth inhibition) at 200 ppm [4]

CCS(=O)(=O)c1cccnc1-c1nc2cc(S(=N)(=O)C(F)(F)F)ccc2o1 (stereo not drawn) [P16, [2-(3-ethylsulfonyl-2-pyridyl)-1,3-benzoxazol-5-yl]-imino-oxo-(trifluoromethyl)-λ^6-sulfane]
≥ 80%: percent control (mortality, anti-feeding effect or growth inhibition) at 200 ppm [1] | percent effect (mortality or growth inhibition) at 200 ppm [2] | effect (mortality or growth inhibition) at 200 ppm [3] | percent effect (mortality or growth inhibition) at 200 ppm [4]

CCN=S(=O)(c1ccc2oc(-c3ncc(OCC(F)(F)F)cc3S(=O)(=O)CC)nc2c1)C(F)(F)F (stereo not drawn) [P22, ethylimino-[2-[3-ethylsulfonyl-5-(2,2,2-trifluoroethoxy)-2-pyridyl]-1,3-benzoxazol-5-yl]-oxo-(trifluoromethyl)-λ^6-sulfane]
≥ 80%: percent control (mortality, anti-feeding effect or growth inhibition) at 200 ppm [1] | percent effect (mortality or growth inhibition) at 200 ppm [2] | effect (mortality or growth inhibition) at 200 ppm [3] | percent effect (mortality or growth inhibition) at 200 ppm [4]

CCS(=O)(=O)c1cc(OCC(F)(F)F)cnc1-c1nc2cc(S(=O)(=NC(C)=O)C(F)(F)F)ccc2o1 (stereo not drawn) [P24, N-[[2-[3-ethylsulfonyl-5-(2,2,2-trifluoroethoxy)-2-pyridyl]-1,3-benzoxazol-5-yl]-oxo-(trifluoromethyl)-λ^6-sulfanylidene]acetamide]
≥ 80%: percent control (mortality, anti-feeding effect or growth inhibition) at 200 ppm [1] | percent effect (mortality or growth inhibition) at 200 ppm [2] | effect (mortality or growth inhibition) at 200 ppm [3] | percent effect (mortality or growth inhibition) at 200 ppm [4]

CCS(=O)(=O)c1cc(Oc2ccccn2)cnc1-c1nc2cc(S(=O)(=NC(C)=O)C(F)(F)F)ccc2o1 (stereo not drawn) [P25, N-[[2-[3-ethylsulfonyl-5-(2-pyridyloxy)-2-pyridyl]-1,3-benzoxazol-5-yl]-oxo-(trifluoromethyl)-λ^6-sulfanylidene]acetamide]
≥ 80%: percent control (mortality, anti-feeding effect or growth inhibition) at 200 ppm [1] | percent effect (mortality or growth inhibition) at 200 ppm [2] | effect (mortality or growth inhibition) at 200 ppm [3] | percent effect (mortality or growth inhibition) at 200 ppm [4]

CCS(=O)(=O)c1cc(C2(C#N)CC2)cnc1-c1nc2cc(S(=O)(=NC3CC3)C(F)(F)F)ccc2o1 (stereo not drawn) [P30, 1-[6-[5-[N-cyclopropyl-S-(trifluoromethyl)sulfonimidoyl]-1,3-benzoxazol-2-yl]-5-ethylsulfonyl-3-pyridyl]cyclopropanecarbonitrile]
≥ 80%: percent control (mortality, anti-feeding effect or growth inhibition) at 200 ppm [1] | percent effect (mortality or growth inhibition) at 200 ppm [2] | percent effect (mortality or growth inhibition) at 200 ppm [4]

CCS(=O)(=O)c1cc(C2(C#N)CC2)cnc1-c1nc2cc(S(=O)(=NC3CC3)C(F)(F)F)ccc2n1C (stereo not drawn) [P31, 1-[6-[5-[N-cyclopropyl-S-(trifluoromethyl)sulfonimidoyl]-1-methyl-benzimidazol-2-yl]-5-ethylsulfonyl-3-pyridyl]cyclopropanecarbonitrile]
≥ 80%: percent effect (mortality or growth inhibition) at 200 ppm [2] | effect (mortality or growth inhibition) at 200 ppm [3] | percent effect (mortality or growth inhibition) at 200 ppm [4]

CCS(=O)(=O)c1cc(-n2ccc(Cl)n2)cnc1-c1nc2cc(S(=N)(=O)C(F)(F)F)ccc2o1 (stereo not drawn) [P37, [2-[5-(3-chloropyrazol-1-yl)-3-ethylsulfonyl-2-pyridyl]-1,3-benzoxazol-5-yl]-imino-oxo-(trifluoromethyl)-λ^6-sulfane]
≥ 80%: percent control (mortality, anti-feeding effect or growth inhibition) at 200 ppm [1] | percent effect (mortality or growth inhibition) at 200 ppm [2] | percent effect (mortality or growth inhibition) at 200 ppm [4]

CCN=S(=O)(c1ccc2oc(-c3ncc(-n4ccc(Cl)n4)cc3S(=O)(=O)CC)nc2c1)C(F)(F)F (stereo not drawn) [P38, [2-[5-(3-chloropyrazol-1-yl)-3-ethylsulfonyl-2-pyridyl]-1,3-benzoxazol-5-yl]-ethylimino-oxo-(trifluoromethyl)-λ^6-sulfane]
≥ 80%: percent control (mortality, anti-feeding effect or growth inhibition) at 200 ppm [1] | percent effect (mortality or growth inhibition) at 200 ppm [2] | percent effect (mortality or growth inhibition) at 200 ppm [4]

CCN=S(=O)(c1ccc2oc(-c3ncc(-c4nccc(C(F)(F)F)n4)cc3S(=O)(=O)CC)nc2c1)C(F)(F)F (stereo not drawn) [P41, ethylimino-[2-[3-ethylsulfonyl-5-[4-(trifluoromethyl)pyrimidin-2-yl]-2-pyridyl]-1,3-benzoxazol-5-yl]-oxo-(trifluoromethyl)-λ^6-sulfane]
≥ 80%: percent control (mortality, anti-feeding effect or growth inhibition) at 200 ppm [1] | percent effect (mortality or growth inhibition) at 200 ppm [2] | percent effect (mortality or growth inhibition) at 200 ppm [4]

CCN=S(=O)(c1ccc2oc(-c3ncc(-c4ncc(Cl)cn4)cc3S(=O)(=O)CC)nc2c1)C(F)(F)F (stereo not drawn) [P43, [2-[5-(5-chloropyrimidin-2-yl)-3-ethylsulfonyl-2-pyridyl]-1,3-benzoxazol-5-yl]-ethylimino-oxo-(trifluoromethyl)-λ^6-sulfane]
≥ 80%: percent control (mortality, anti-feeding effect or growth inhibition) at 200 ppm [1] | percent effect (mortality or growth inhibition) at 200 ppm [2] | percent effect (mortality or growth inhibition) at 200 ppm [4]

CCS(=O)(=O)c1ccc(-n2cnc(Cl)n2)nc1-c1nc2cc(S(=N)(=O)C(F)(F)F)ccc2n1C (stereo not drawn) [P46, [2-[6-(3-chloro-1,2,4-triazol-1-yl)-3-ethylsulfonyl-2-pyridyl]-1-methyl-benzimidazol-5-yl]-imino-oxo-(trifluoromethyl)-λ^6-sulfane]
≥ 80%: percent control (mortality, anti-feeding effect or growth inhibition) at 200 ppm [1] | percent effect (mortality or growth inhibition) at 200 ppm [2] | percent effect (mortality or growth inhibition) at 200 ppm [4]

CCN=S(=O)(c1ccc2c(c1)nc(-c1nc(-n3cnc(Cl)n3)ccc1S(=O)(=O)CC)n2C)C(F)(F)F (stereo not drawn) [P47, [2-[6-(3-chloro-1,2,4-triazol-1-yl)-3-ethylsulfonyl-2-pyridyl]-1-methyl-benzimidazol-5-yl]-ethylimino-oxo-(trifluoromethyl)-λ^6-sulfane]
≥ 80%: percent control (mortality, anti-feeding effect or growth inhibition) at 200 ppm [1] | percent effect (mortality or growth inhibition) at 200 ppm [2] | percent effect (mortality or growth inhibition) at 200 ppm [4]

CCS(=O)(=O)c1ccc(-n2cnc(C(F)(F)F)n2)nc1-c1nc2cc(S(=N)(=O)C(F)(F)F)ccc2n1C (stereo not drawn) [P48, [2-[3-ethylsulfonyl-6-[3-(trifluoromethyl)-1,2,4-triazol-1-yl]-2-pyridyl]-1-methyl-benzimidazol-5-yl]-imino-oxo-(trifluoromethyl)-λ^6-sulfane]
≥ 80%: percent control (mortality, anti-feeding effect or growth inhibition) at 200 ppm [1] | percent effect (mortality or growth inhibition) at 200 ppm [2] | percent effect (mortality or growth inhibition) at 200 ppm [4]

CCN=S(=O)(c1ccc2c(c1)nc(-c1nc(-n3cnc(C(F)(F)F)n3)ccc1S(=O)(=O)CC)n2C)C(F)(F)F (stereo not drawn) [P49, ethylimino-[2-[3-ethylsulfonyl-6-[3-(trifluoromethyl)-1,2,4-triazol-1-yl]-2-pyridyl]-1-methyl-benzimidazol-5-yl]-oxo-(trifluoromethyl)-λ^6-sulfane]
≥ 80%: percent control (mortality, anti-feeding effect or growth inhibition) at 200 ppm [1] | percent effect (mortality or growth inhibition) at 200 ppm [2] | percent effect (mortality or growth inhibition) at 200 ppm [4]

CCS(=O)(=O)c1ccc(-c2ncccn2)nc1-c1nc2cc(S(=N)(=O)C(F)(F)F)ccc2o1 (stereo not drawn) [P54, [2-(3-ethylsulfonyl-6-pyrimidin-2-yl-2-pyridyl)-1,3-benzoxazol-5-yl]-imino-oxo-(trifluoromethyl)-λ^6-sulfane]
≥ 80%: percent control (mortality, anti-feeding effect or growth inhibition) at 200 ppm [1] | percent effect (mortality or growth inhibition) at 200 ppm [2] | percent effect (mortality or growth inhibition) at 200 ppm [4]

CCN=S(=O)(c1ccc2oc(-c3nc(-c4ncccn4)ccc3S(=O)(=O)CC)nc2c1)C(F)(F)F (stereo not drawn) [P55, ethylimino-[2-(3-ethylsulfonyl-6-pyrimidin-2-yl-2-pyridyl)-1,3-benzoxazol-5-yl]-oxo-(trifluoromethyl)-λ^6-sulfane]
≥ 80%: percent control (mortality, anti-feeding effect or growth inhibition) at 200 ppm [1] | percent effect (mortality or growth inhibition) at 200 ppm [2] | percent effect (mortality or growth inhibition) at 200 ppm [4]
